Each structure is given as a SMILES string. Where a name gives a salt, the structure may show the parent alone.

From patent publication US5621133A (priority 1995, dated 1997) come the findings set out here.

In experiment [1] the test system is striatal dopamine receptors. In words: Rotation behavior assay of in vivo activity (6-hydroxydopamine lesioned rat rotational model). The note with it: for ED50 s.c. (rotation behavior): injected subcutaneously.
Experiment [2] addresses dopamine D-1 receptor (Rattus norvegicus, UniProt P18901). The experiment in a line: biochemical. The conditions noted are these: D-1 Ki, rat caudate, [125I]SCH-23982.
Description: The compounds compete with the radiolabeled ligand for occupancy of the receptors and the molar potency of each compound was quantified.
The Ki values are inversely proportional to the affinity of the compound for the receptor.
Another experiment addresses dopamine D-2 receptor (Rattus norvegicus, UniProt P61169). In words: biochemical. The format is binding. The conditions noted are these: rat caudate, [125I]-p-aminophenylethyl spiroperidol; read-out: D-2 Ki. How it is done: Homogenized rat caudate was the source of the D-2 receptors. […] The molar affinity of the compound for the receptor binding site was calculated by the same method used for the D-1 receptor assay, assuming a competitive interaction between the compound and the radiolabeled ligand.

In experiment [3] the test system is dopamine D-1 receptor. The conditions noted are these: for Intrinsic Activity (adenylate cyclase assay): dopamine = 100, goldfish retina or rat striatum; for EC50: read-out: EC50 (agonist activity in adenylate cyclase assay), tissue from goldfish retina or rat striatum.
Protocol: In order to determine agonist activity, cell-free tissue homogenates are incubated in an ionic buffer solution containing ATP and the compound being evaluated. The tissue was obtained from either goldfish retina or rat striatum.

Chain of dopamine D-2 receptor (P61169 whole entry): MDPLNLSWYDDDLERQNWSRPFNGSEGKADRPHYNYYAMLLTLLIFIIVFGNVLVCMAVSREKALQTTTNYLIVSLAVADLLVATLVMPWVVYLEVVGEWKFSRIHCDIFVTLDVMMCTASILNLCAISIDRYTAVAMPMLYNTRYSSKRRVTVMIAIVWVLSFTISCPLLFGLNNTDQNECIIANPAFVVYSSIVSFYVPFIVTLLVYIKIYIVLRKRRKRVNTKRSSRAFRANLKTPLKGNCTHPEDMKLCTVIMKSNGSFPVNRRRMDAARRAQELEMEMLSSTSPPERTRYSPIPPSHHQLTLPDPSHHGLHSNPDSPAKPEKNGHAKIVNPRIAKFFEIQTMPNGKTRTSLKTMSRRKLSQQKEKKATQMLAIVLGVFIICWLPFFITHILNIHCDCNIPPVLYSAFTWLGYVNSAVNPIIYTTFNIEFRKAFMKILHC
Chain of dopamine D-1 receptor (Rattus norvegicus, UniProt P18901) (P18901 whole entry): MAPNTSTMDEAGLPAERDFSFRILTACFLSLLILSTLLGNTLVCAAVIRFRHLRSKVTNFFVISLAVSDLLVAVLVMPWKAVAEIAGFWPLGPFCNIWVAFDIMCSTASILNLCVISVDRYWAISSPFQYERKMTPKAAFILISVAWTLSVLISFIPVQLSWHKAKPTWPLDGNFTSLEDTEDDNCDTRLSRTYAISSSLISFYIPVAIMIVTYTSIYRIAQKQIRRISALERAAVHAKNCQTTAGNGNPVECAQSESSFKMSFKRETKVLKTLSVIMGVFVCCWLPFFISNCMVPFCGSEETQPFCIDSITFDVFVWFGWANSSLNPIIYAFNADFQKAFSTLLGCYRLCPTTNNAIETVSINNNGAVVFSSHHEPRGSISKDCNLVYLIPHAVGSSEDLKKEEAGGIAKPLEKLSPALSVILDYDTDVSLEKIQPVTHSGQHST

Turning to `CC(=O)Oc1ccc2c(c1OC(C)=O)CC(c1ccccc1)C=C2CNC(=O)OC(C)OC(C)=O` (centres unmarked) [Example 6], the “mean rotations over 20 hours” value in experiment [1] (dose = 143 micromoles/kg p.o.) is recorded as 2564.

As to `CC(=O)Oc1ccc2c(c1OC(C)=O)CC(c1ccccc1)C=C2CNC(=O)[C@H](C)NC(=O)[C@H](C)N` (some centres unmarked) [Example 4, 5,6-Bis(acetoxy)-1-(alanyl-alanyl)aminomethyl-3-phenyl-3,4-dihydronaphthalene Hydrochloride], the “mean rotations over 360 minutes” value in experiment [1] (dose = 143 micromoles/kg p.o.) came out at 3329.

For the molecule `CSCC[C@H](N)C(=O)NCC1=CC(c2ccccc2)Cc2c1ccc(OC(C)=O)c2OC(C)=O` (some centres unmarked) [Example 14], the “mean rotations over 360 minutes” value in experiment [1] (dose = 143 micromoles/kg p.o.) worked out at 3653.

In general, Ki refers to the dissociation constant of the complex between target and ligand, obtained from inhibition or displacement. As to `CNCC1OC(CC(C)C)Cc2c1ccc(O)c2O` (centres unmarked) [Example 219], the Ki at dopamine D-1 receptor [2] was 4000 nM; at dopamine D-2 receptor, 1600 nM. The “ED50 s.c. (rotation behavior)” value in experiment [1] was determined as 0.09 µmol/kg.

In the case of `C[C@H](N)C(=O)N[C@@H](C)C(=O)NCC1=CC(c2ccccc2)Cc2c1ccc(OC(=O)c1ccccc1)c2OC(=O)c1ccccc1` (some centres unmarked) [Example 15], the “mean rotations over 360 minutes” value in experiment [1] (dose = 143 micromoles/kg p.o.) is recorded as 1760.

For the molecule `CN1CCC2=C(C1)c1ccc(O)c(O)c1CC2C(C)(C)C` (centres unmarked) [Example 244], the Ki at dopamine D-1 receptor [2] was found to be 240 nM; at dopamine D-2 receptor, 1200 nM. The “ED50 s.c. (rotation behavior)” value in experiment [1] is given as above 3 µmol/kg.

Consider `CN1CCC2=C(C1)c1ccc(O)c(O)c1CC21CCCCCCC1` [Example 250], for which the inhibitory constant (Ki) at dopamine D-1 receptor [2] turned out to be 150 nM; on dopamine D-2 receptor, 1600 nM. For the same molecule, the “ED50 s.c. (rotation behavior)” value in experiment [1] is 0.51 µmol/kg.

With `CC(=O)Oc1ccc2c(c1OC(C)=O)CC(c1ccccc1)C=C2CNC(=O)[C@H](C)N` (some centres unmarked) [Example 10], in experiment [1] (dose = 143 micromoles/kg p.o.), the “mean rotations over 360 minutes” value is 1516.

Consider `Cl.NCC1=CC(c2ccccc2)Cc2c1ccc(OC(=O)c1ccccc1)c2OC(=O)c1ccccc1` (centres unmarked) [Example 16, 1-Aminomethyl-5,6-bis(benzoyloxy)-3-phenyl-3,4-dihydronaphthalene Hydrochloride], for which, in experiment [1] (dose = 143 micromoles/kg p.o.), the “mean rotations over 360 minutes” value was 4844.

As usually defined, the EC50 is the concentration at which the effect is half-maximal. Consider `CCCCCC[C@@H]1Cc2c(ccc(O)c2O)[C@H](CN)O1` (relative stereo) [Example 68], for which the Ki at dopamine D-1 receptor [2] was determined as 100 nM; at dopamine D-2 receptor, 5500 nM. Further, the “Intrinsic Activity (adenylate cyclase assay)” value (“Intrinsic Activity” below) with dopamine D-1 receptor [3] stood at 90. Besides, the concentration for a half-maximal effect (EC50) on dopamine D-1 receptor [3] amounted to 14 nM.

For the molecule `CNCC1OC2(CCOCC2)Cc2c1ccc(O)c2O` (centres unmarked) [Example 143], affinity on dopamine D-1 receptor [2] was put at a Ki of 1200 nM. Also, in the experiment on dopamine D-1 receptor [3], the “Intrinsic Activity” value came to 94 and the 50% effective concentration (EC50) was found to be 1100 nM. Moreover, at dopamine D-2 receptor, the inhibition constant (Ki) was above 10000 nM.

`CCCCC1Cc2c(ccc(O)c2O)C2=C1CCNC2` (centres unmarked) [Example 243] yielded a Ki at dopamine D-1 receptor [2] of 70 nM. Besides, in the experiment with dopamine D-1 receptor [3], the “Intrinsic Activity” value was 83 and the 50% effective concentration (EC50) worked out at 950 nM. For the same molecule, the inhibition constant (Ki) at dopamine D-2 receptor came to 3000 nM.

On dopamine D-1 receptor [2], `CNC[C@H]1O[C@@H](CCN)Cc2c1ccc(O)c2O` (relative stereo) [Example 173] showed a Ki of 3600 nM. Moreover, in the experiment on dopamine D-1 receptor [3], the “Intrinsic Activity” value was determined as 63 and the half-maximal effective concentration (EC50) amounted to 390 nM. For the same molecule, the Ki at dopamine D-2 receptor came out at 14000 nM.

As to `NCC1CC2(CCCCCCCCC2)Cc2c1ccc(O)c2O` (centres unmarked) [Example 237], affinity on dopamine D-1 receptor [2] was put at a Ki of 6500 nM. Further, in the experiment on dopamine D-1 receptor [3], the “Intrinsic Activity” value is recorded as 34 and the EC50 was 1900 nM. Also, the Ki at dopamine D-2 receptor was above 10000 nM.

Take `CCOC(=O)CC(=O)NC[C@@H]1Cc2c(ccc(O)c2O)[C@H](CN)O1` (relative stereo) [Example 92]: the Ki amounted to 1500 nM at dopamine D-1 receptor [2] and 5400 nM on dopamine D-2 receptor. Further, in the experiment on dopamine D-1 receptor [3], the “Intrinsic Activity” value is reported as 69. Besides, on dopamine D-1 receptor [3], the 50% effective concentration (EC50) is 600 nM.

For the molecule `NCC1=CC(c2cccc3ccccc23)Cc2c1ccc(O)c2O` (centres unmarked) [Example 41], the Ki at dopamine D-1 receptor [2] was determined as 700 nM. Moreover, in the experiment with dopamine D-1 receptor [3], the “Intrinsic Activity” value stood at 81 and the half-maximal effective concentration (EC50) is 1800 nM. For the same molecule, the Ki at dopamine D-2 receptor came out at 2500 nM.

In the case of `CNC[C@H]1O[C@@H](Cc2ccc(OC)cc2)Cc2c1ccc(O)c2O` (relative stereo) [Example 137], the Ki on dopamine D-1 receptor [2] turned out to be 2900 nM. In the experiment with dopamine D-1 receptor [3], the “Intrinsic Activity” value was found to be 93 and the half-maximal effective concentration (EC50) turned out to be 1000 nM. For the same molecule, the Ki at dopamine D-2 receptor is 550 nM.

`CC(=O)NCC[C@H]1Cc2c(ccc(O)c2O)[C@@H](CN)O1` (relative stereo) [Example 172]: the Ki at dopamine D-1 receptor [2] was 1100 nM; at dopamine D-2 receptor it was above 10000 nM. Moreover, the “Intrinsic Activity” value with dopamine D-1 receptor [3] stood at 116. On dopamine D-1 receptor [3], the EC50 was 220 nM.

Take `Oc1ccc2c(c1O)C[C@H](c1ccccc1)O[C@@H]2[C@H]1CCCN1` [Example 127]: the Ki on dopamine D-1 receptor [2] stood at 1300 nM. For the same molecule, in the experiment on dopamine D-1 receptor [3], the “Intrinsic Activity” value worked out at 55 and the EC50 turned out to be 520 nM. Moreover, at dopamine D-2 receptor, the inhibitory constant (Ki) is above 10000 nM.

As to `NCC1=CC(c2ccc3ccccc3c2)Cc2c1ccc(O)c2O` (centres unmarked) [Example 40], the Ki is 5000 nM on dopamine D-1 receptor [2] and 27000 nM at dopamine D-2 receptor. Also, the “Intrinsic Activity” value in the experiment on dopamine D-1 receptor [3] is 86. Also, the concentration for a half-maximal effect (EC50) at dopamine D-1 receptor [3] worked out at 1100 nM.

`NC[C@H]1O[C@@H](CNC(=O)c2ccccc2)Cc2c1ccc(O)c2O` (relative stereo) [Example 164] yielded a Ki at dopamine D-1 receptor [2] of 3600 nM. In addition, in the experiment with dopamine D-1 receptor [3], the “Intrinsic Activity” value is given as 96 and the EC50 came to 200 nM. The inhibition constant Ki on dopamine D-2 receptor was determined as 250 nM.

Take `Oc1ccc2c(c1O)CC(CC1CCCC1)C1=C2CNCC1` (centres unmarked) [Example 209]: the results for the inhibition constant Ki on dopamine D-1 receptor [2] and at dopamine D-2 receptor were 490 nM and 2800 nM, respectively. Further, the “Intrinsic Activity” value in the experiment with dopamine D-1 receptor [3] is given as 25.

As to `COc1cccc([C@@H]2Cc3c(ccc(O)c3O)[C@H](CN)O2)c1` (relative stereo) [Example 82], the Ki stood at 11 nM at dopamine D-1 receptor [2] and 820 nM at dopamine D-2 receptor. In the experiment with dopamine D-1 receptor [3], the “Intrinsic Activity” value amounted to 107. In addition, the EC50 on dopamine D-1 receptor [3] was 7 nM.

With `CCC(=O)Oc1ccc2c(c1OC(=O)CC)CC(c1ccccc1)C=C2CN` (centres unmarked) [Example 20], the inhibition constant (Ki) at dopamine D-1 receptor [2] was 1900 nM; at dopamine D-2 receptor, above 10000 nM. In the experiment on dopamine D-1 receptor [3], the “Intrinsic Activity” value stood at 80. The 50% effective concentration (EC50) at dopamine D-1 receptor [3] turned out to be 500 nM.

As to `CN(C)C[C@@H]1O[C@H](C2(C)CCCCC2)Cc2c1ccc(O)c2O` (relative stereo) [Example 230], the inhibition constant (Ki) at dopamine D-1 receptor [2] is 26 nM; at dopamine D-2 receptor, above 10000 nM. The “Intrinsic Activity” value with dopamine D-1 receptor [3] turned out to be 59. Besides, the concentration giving a half-maximal response (EC50) on dopamine D-1 receptor [3] came out at 120 nM.

`Cc1cc2c(c(O)c1O)C[C@@H](C1CCCCC1)O[C@H]2CN` (relative stereo) [Example 177, [1,3-cis]1-Aminomethyl-3-cyclohexyl-3,4-dihydro-5,6-dihydroxy-7-methyl-1H-2-benzopyran Hydrochloride] gave an inhibitory constant (Ki) on dopamine D-1 receptor [2] of 130 nM. Also, in the experiment on dopamine D-1 receptor [3], the “Intrinsic Activity” value was found to be 62 and the EC50 came out at 170 nM. The inhibition constant (Ki) at dopamine D-2 receptor amounted to 6600 nM.

For `Oc1ccc2c(c1O)C[C@@H](c1ccccc1)C[C@H]2[C@H]1CCCN1` (relative stereo) [Example 180, [1,3-cis]5,6-Dihydroxy-3-phenyl-1-(2'-pyrrolidinyl)-1,2,3,4-tetrahydronaphthalene Hydrobromide], the inhibitory constant (Ki) at dopamine D-1 receptor [2] was found to be 1100 nM; at dopamine D-2 receptor it was 4700 nM. In addition, in the experiment with dopamine D-1 receptor [3], the “Intrinsic Activity” value was 71. The concentration giving a half-maximal response (EC50) at dopamine D-1 receptor [3] was 80 nM.
